Laboratory results reported in US6723680B2, “Composition for regulation of gametophytic self-incompatibility, control method of gametophytic self-incompatibility of a plant and the plant self-pollinated by using said control method” (Istech Co., Ltd., priority 2000, dated 2004).

Tested on: style-specific S1 RNase and S2 RNase
Test: Inhibition of style-specific RNase activity
Format: biochemical, Fuji apple
Details: 1 mM DEPC
Description: The activity variation of the style-specific S1 RNase and S2 RNase purified in the Example 1-4 was investigated by adding chemicals acting as an inhibitor of protein degradation enzyme. RNase activity was measured by adding general stimulators of RNase activity, inhibitors of RNase activity commercially available and inhibitor candidate of a style-specific RNase of the present invention (Singh A. et al., Plant Physiology, 96:61-68, 1991). Among them, 1 mM EDTA, which is a representative inhibitor of protein degradation enzyme, 1 mM CaCl2, a stimulator of RNase activity, 1 mM DEPC (Sigma), a fatally poisonous inhibitor of RNase activity commercially available, and 1 mM ZnSO4 and 1 mM CuSO4, inhibitor candidates of the style-specific RNase was added respectively to mesure RNase activity.

CCOC(=O)OC(=O)OCC [DEPC]
style-specific RNase activity: inhibited
